According to ChEMBL document CHEMBL1201862, “PubChem BioAssay data set” (2004):
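In this assay, cells in 96-well plates receive the compound at five concentrations for 48 hours. Endpoints are linearly interpolated between the surrounding concentrations. Here, GI50 denotes the concentration required for 50% inhibition of growth.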 Active and inactive are the calls of the source. Cut-off read from the data, not from the text of the source: active = GI50 up to about 1.1 µM and inactive = higher.

Key:
Experiment in all cases: NCI-60 cell line screen, 48 h
SF-295 = system: SF-295
NCI-H226 = system: NCI-H226
OVCAR-5 = system: OVCAR-5
MCF7 = system: MCF7
SK-MEL-5 = system: SK-MEL-5
HCC 2998 = system: HCC 2998
DU-145 = system: DU-145
CAKI-1 = system: CAKI-1
UACC-257 = system: UACC-257
COLO 205 = system: COLO 205
NCI-H460 = system: NCI-H460
OVCAR-4 = system: OVCAR-4
MDA-MB-435 = system: MDA-MB-435
UACC-62 = system: UACC-62
HOP-62 = system: HOP-62
ACHN = system: ACHN
TK-10 = system: TK-10
Hs-578T = system: Hs-578T
HCT-116 = system: HCT-116
MOLT-4 = system: MOLT-4

Row | Compound | GI50 (SF-295) | GI50 (NCI-H226) | GI50 (OVCAR-5) | GI50 (MCF7) | GI50 (SK-MEL-5) | GI50 (HCC 2998) | GI50 (DU-145) | GI50 (CAKI-1) | GI50 (UACC-257) | GI50 (COLO 205) | GI50 (NCI-H460) | GI50 (OVCAR-4) | GI50 (MDA-MB-435) | GI50 (UACC-62) | GI50 (HOP-62) | GI50 (ACHN) | GI50 (TK-10) | GI50 (Hs-578T) | GI50 (HCT-116) | GI50 (MOLT-4)
1 | CC(=O)OC1CCC2(C)C(CCC3C2CC(=O)C2(C)C3CC(N3CC3)C2C(C)=O)C1 (stereo not given) | 5.71 µM (inactive) | 19.1 µM (inactive) | 37.4 µM (inactive) | 15.4 µM (inactive) | 15.2 µM (inactive) | 15.4 µM (inactive) | 32.6 µM (inactive) | 16.1 µM (inactive) | 17.3 µM (inactive) | 15.8 µM (inactive) | 12.4 µM (inactive) | 19.8 µM (inactive) | 17.9 µM (inactive) | 16.2 µM (inactive) | 24.5 µM (inactive) | 13.8 µM (inactive) | 19.6 µM (inactive) | 15.1 µM (inactive) | 20.7 µM (inactive) | 2.11 µM (inactive)
2 | COC(=O)[C@H]1[C@@H](C(C)C)O[C@@H](C(C)C)O[C@H]1C(F)(F)F | > 100 µM (inactive) | > 100 µM (inactive) | > 100 µM (inactive) | > 100 µM (inactive) | > 100 µM (inactive) | > 100 µM (inactive) | > 100 µM (inactive) | > 100 µM (inactive) | > 100 µM (inactive) | > 100 µM (inactive) | > 100 µM (inactive) | > 100 µM (inactive) | > 100 µM (inactive) | > 100 µM (inactive) | > 100 µM (inactive) | > 100 µM (inactive) | > 100 µM (inactive) | > 100 µM (inactive) | > 100 µM (inactive) | > 100 µM (inactive)
3 | COC(=O)[C@]1(c2cc3ccccc3[nH]2)CC2CN(C(=O)OCc3ccccc3)C1CC2=O (stereo not given in full) | 25.4 µM (inactive) | 18.2 µM (inactive) | 14.1 µM (inactive) | 16.7 µM (inactive) | 17.1 µM (inactive) | 35 µM (inactive) | 38.8 µM (inactive) | 38.5 µM (inactive) | 36.3 µM (inactive) | 16.5 µM (inactive) | 24.4 µM (inactive) | 28.1 µM (inactive) | 30.1 µM (inactive) | 17.1 µM (inactive) | 43.2 µM (inactive) | 26.6 µM (inactive) | 53.5 µM (inactive) | 19.4 µM (inactive) | 22.8 µM (inactive) | 15 µM (inactive)
4 | O=C1C=C(NCC(c2ccccc2)c2ccccc2)C(=O)c2ncccc21 | 1.74 µM (inactive) | 3.1 µM (inactive) | 5.14 µM (inactive) | 1.4 µM (inactive) | 0.427 µM (active) | 0.785 µM (active) | 1.96 µM (inactive) | 2.4 µM (inactive) | 0.877 µM (active) | 9.89 µM (inactive) | 0.518 µM (active) | 1.84 µM (inactive) | 1.35 µM (inactive) | 1.39 µM (inactive) | 1.57 µM (inactive) | 2.28 µM (inactive) | 17 µM (inactive) | 2.63 µM (inactive) | 8.53 µM (inactive) | 2.31 µM (inactive)
5 | Cc1cc(NS(=O)(=O)c2ccc(NC(=O)c3cccc4c(NNc5ccc(S(=O)(=O)N=C(N)N)cc5)c5ccccc5nc34)cc2)no1 | 69.7 µM (inactive) | 25.2 µM (inactive) | 83.6 µM (inactive) | 43.7 µM (inactive) | 44.7 µM (inactive) | 30.5 µM (inactive) | 51.5 µM (inactive) | > 100 µM (inactive) | > 100 µM (inactive) | 91.6 µM (inactive) | 51.9 µM (inactive) | 58.7 µM (inactive) | 92.9 µM (inactive) | 42.9 µM (inactive) | > 100 µM (inactive) | 50.4 µM (inactive) | > 100 µM (inactive) | 27.4 µM (inactive) | 40.2 µM (inactive) | 28 µM (inactive)
6 | COc1cc2cc(C(=O)N3CC(COS(C)(=O)=O)c4c3cc([N+](=O)[O-])c3ccccc43)[nH]c2c(OC)c1OC (stereo not given) | 2.37 µM (inactive) | > 100 µM (inactive) | 18.6 µM (inactive) | 2 µM (inactive) | > 10 µM (inactive) | 0.291 µM (active) | 0.553 µM (active) | 0.398 µM (active) | > 31.6 µM (inactive) | > 35.6 µM (inactive) | 0.0986 µM (active) | > 31.6 µM (inactive) | > 31.6 µM (inactive) | 2.74 µM (inactive) | 7.57 µM (inactive) | 0.547 µM (active) | > 31.6 µM (inactive) | > 31.6 µM (inactive) | 1.24 µM (inactive) | 0.407 µM (active)
7 | CCOc1ccc(N/C(Cl)=C(Cl)\C(=C(\Nc2ccc(OCC)cc2)n2nnc3ccccc32)[N+](=O)[O-])cc1 | 22.1 µM (inactive) | 19.4 µM (inactive) | 9.44 µM (inactive) | 5.89 µM (inactive) | 8.49 µM (inactive) | 13.2 µM (inactive) | 14.5 µM (inactive) | 1.14 µM (inactive) | 8.3 µM (inactive) | 7.38 µM (inactive) | 24.7 µM (inactive) | 10.3 µM (inactive) | 6.95 µM (inactive) | 15.7 µM (inactive) | 33.1 µM (inactive) | 4.03 µM (inactive) | 4.49 µM (inactive) | 2.58 µM (inactive) | 2.15 µM (inactive) | 2.85 µM (inactive)
8 | CC1(C)CCC2=C(O1)/C(=N\Nc1ccc(F)cc1)c1ccccc1C2=O | 20.7 µM (inactive) | > 100 µM (inactive) | 35.6 µM (inactive) | 27.3 µM (inactive) | 8.91 µM (inactive) | 21.9 µM (inactive) | 18.4 µM (inactive) | 40.4 µM (inactive) | 17.3 µM (inactive) | 35.1 µM (inactive) | 23.9 µM (inactive) | 34.4 µM (inactive) | 18.1 µM (inactive) | 14.7 µM (inactive) | 21.7 µM (inactive) | 38.5 µM (inactive) | 38.9 µM (inactive) | 28.4 µM (inactive) | 31.3 µM (inactive) | 35.3 µM (inactive)
9 | CCNc1nnc(-c2ccccc2Nc2ccccc2-c2nnc(NCC)s2)s1 | 16.3 µM (inactive) | 20.2 µM (inactive) | 18.2 µM (inactive) | 2.28 µM (inactive) | 5.52 µM (inactive) | 11.6 µM (inactive) | 4.72 µM (inactive) | 2.85 µM (inactive) | 23.6 µM (inactive) | > 32.8 µM (inactive) | 5.66 µM (inactive) | 27.5 µM (inactive) | 17.4 µM (inactive) | 11.5 µM (inactive) | 22.2 µM (inactive) | 7.35 µM (inactive) | 11.4 µM (inactive) | 12.3 µM (inactive) | 9.89 µM (inactive) | 4.35 µM (inactive)
10 | CN(C)CCNc1nc2ccccc2c2c1CCCC2 | 15.9 µM (inactive) | 21.1 µM (inactive) | 30.4 µM (inactive) | 14.8 µM (inactive) | 15.3 µM (inactive) | 12.5 µM (inactive) | 33.9 µM (inactive) | 16.9 µM (inactive) | 15.1 µM (inactive) | 22.9 µM (inactive) | 16 µM (inactive) | 48.9 µM (inactive) | 18.2 µM (inactive) | 16.4 µM (inactive) | 16.5 µM (inactive) | 23.9 µM (inactive) | 14.5 µM (inactive) | 32.7 µM (inactive) | 14.8 µM (inactive) | 23.2 µM (inactive)
11 | O=C1O/C(=C(/Br)c2ccc(Cl)c(Cl)c2)c2ccccc21 | > 10 µM (inactive) | > 10 µM (inactive) | > 10 µM (inactive) | 7.67 µM (inactive) | > 10 µM (inactive) | > 10 µM (inactive) | > 10 µM (inactive) | > 10 µM (inactive) | > 10 µM (inactive) | > 10 µM (inactive) | > 10 µM (inactive) | > 10 µM (inactive) | > 10 µM (inactive) | > 10 µM (inactive) | > 10 µM (inactive) | > 10 µM (inactive) | > 10 µM (inactive) | > 10 µM (inactive) | > 10 µM (inactive) | > 10 µM (inactive)
12 | CCCCCCCCCCCCCCCCCCOCC(O)COP(=O)(O)OCC1OC(n2ccc(N)nc2=O)C(O)C1O (stereo not given) | 22.7 µM (inactive) | > 100 µM (inactive) | 33.6 µM (inactive) | 22 µM (inactive) | 29.9 µM (inactive) | 22 µM (inactive) | 98.2 µM (inactive) | 23.1 µM (inactive) | 24.8 µM (inactive) | 10.9 µM (inactive) | 3.69 µM (inactive) | 28.3 µM (inactive) | 45.4 µM (inactive) | 23.9 µM (inactive) | 11.6 µM (inactive) | 11.3 µM (inactive) | 14.2 µM (inactive) | 36.4 µM (inactive) | 10.9 µM (inactive) | 0.908 µM (active)
13 | O=P1(Oc2ccccc2)N(CCCl)CCN1c1ccccc1 (stereo not given) | > 100 µM (inactive) | > 100 µM (inactive) | > 100 µM (inactive) | 70.1 µM (inactive) | 66.5 µM (inactive) | > 100 µM (inactive) | > 100 µM (inactive) | > 100 µM (inactive) | 79.6 µM (inactive) | > 100 µM (inactive) | > 100 µM (inactive) | 23.4 µM (inactive) | > 100 µM (inactive) | > 100 µM (inactive) | > 100 µM (inactive) | > 100 µM (inactive) | 81.5 µM (inactive) | > 100 µM (inactive) | 75.3 µM (inactive) | 61.8 µM (inactive)
14 | CC(C)NC(=O)OCc1c(COC(=O)NC(C)C)c(-c2ccc(Cl)c(Cl)c2)n2c1CCC2 | 48.1 µM (inactive) | 28.1 µM (inactive) | 44.9 µM (inactive) | > 100 µM (inactive) | 24.9 µM (inactive) | 43.6 µM (inactive) | > 100 µM (inactive) | 20.9 µM (inactive) | 49.7 µM (inactive) | 52.8 µM (inactive) | 36.6 µM (inactive) | > 66.5 µM (inactive) | > 100 µM (inactive) | 39.8 µM (inactive) | 38.5 µM (inactive) | 18.7 µM (inactive) | 41.7 µM (inactive) | > 97.5 µM (inactive) | 51.8 µM (inactive) | 13.7 µM (inactive)
